Laboratory results from patent publication US9205174B2, “Bone graft substitute in the form of an implantable three-dimensional scaffold and method of manufacturing same” (Mathys AG Bettlach, priority 2010, dated 2015).

What was measured:
[1] = for expected (added) amount beyond which additional salt does not load the block / loading efficiency drastically decreases: 0.50 g/mL solution, 14×14 mm β-TCP cylinder, dried at 95° C.
Procedure: A 2^2 factorial design of experiments with three repeats was performed with the following factors: Factor A: CaCl2 concentration (0.25 or 0.50 g/mL); Factor B: Liquid amount (3.5 or 7.0 mL). Each of the 14×14 mm cylinders was placed standing in a snap cap flask.
The solution was then slowly added to allow impregnation through capillarity. The cylinder top was always protruding out of the solution. The samples were then inserted into the drying cupboard tempered at 60° C. The ventilation of the drying cupboard was set at its maximum.
The weight of the flask+solution+samples was measured at regular interval to determine the point at which constant weight was reached. […] Therefore, these 9 samples were removed from the flask and the weight was determined without flask. The 3 samples made with 7 mL 0.50 g/mL solution were kept for a longer time. The drying temperature was increased to 80° C.
Each of the 14×14 mm cylinders was placed standing in a snap cap flask. The solution was then slowly injected at the bottom of the snap-cap flask to allow impregnation through capillarity. 6 different volumes were injected: 1.8, 2.7, 3.6, 4.5, 5.6 and 6.3 mL.
Two cylinders were prepared for each solution volume. The cylinder top was always protruding out of the solution. The samples were then inserted into the drying cupboard tempered at 95° C. The ventilation of the drying cupboard was set at its maximum.
The weight of the flask+solution+samples was measured at regular interval to determine the point at which constant weight was reached. The sample weight was determined to assess how much di-potassium hydrogen phosphate was present in the block pores.
Each of the 14×14 mm cylinders was placed standing in a snap cap flask. The solution (kept at 95° C.) was then slowly injected at the bottom of the snap-cap flask to allow impregnation through capillarity. […]
The weight of the flask+solution+samples was measured at regular interval to determine the point at which constant weight was reached. […] The sample weight was determined to assess how much di-potassium hydrogen phosphate was present in the block pores.

[2] = Release test of loaded β-TCP blocks in 1 L deionized water, weight loss after drying; format: physicochemical; conditions: for dissolution rate DRD relative to dissolution rate DRS of β-TCP: from weight losses; for release rate (in words): from loaded β-TCP blocks in 1 L deionized water; for amount released: 50 RPM
Procedure: Each sample was then placed into a small porous cage produced by joining together two BD Falcon filters (Mesh size: 70 micrometers). The cage was lowered into a 1 L deionized water. Stirring was performed with a large magnetic bar (6 cm in length) at 50 RPM. The samples were removed from the solution after 1 h or 3 h (1 sample per time and per composition). The samples were then dried at 95° C. and weighed to determine the amount of Na2HPO4.2H2O released during the test.
Each sample was then placed into a small porous cage produced by joining together two BD Falcon filters (Mesh size: 70 micrometers). The cage was lowered into a 1 L deionized water. Stirring was performed with a large magnetic bar (6 cm in length) at 50 RPM. The samples were removed from the solution after 10 min, 1 h or 6 h (1 samples per time and per composition). The samples were then dried at 95° C. and weighed to determine the amount of CaCl2 released during the incubation.

Structure (SMILES)	expected (added) amount beyond which additional salt does not load the block / loading efficiency drastically decreases [1]	dissolution rate DRD relative to dissolution rate DRS of β-TCP ([2]; deionized water)	release rate (in words) [2]	amount released ([2]; Example 4, after 1 h, deionized water)	state of samples after release ([2]; Example 4, at 6 h, deionized water)	amount released ([2]; Example 4, within 10 minutes, deionized water)	loading efficiency ([1]; Example 1, porous β-TCP blocks, 7 mL of 0.25 g/mL or 3.5 mL of 0.50 g/mL solution, dried at 60° C.) [%]
O=P([O-])([O-])O.[K+].[K+] [K2HPO4, di-potassium hydrogen phosphate]	≈ 2.5 g	–	–	–	–	–	–
O=P([O-])([O-])O.[Na+].[Na+] [Na2HPO4.2H2O, di-sodium hydrogen phosphate]	~1.35 g	two order of magnitude larger	relatively slowly	–	–	–	–
[Ca+2].[Cl-].[Cl-] [calcium chloride]	–	more than 100 times	very fast	80-85%	free of calcium chloride	roughly 50%	~84
